One block for each molecule: values may come before it.
Experiments:
[1] = target: Protein cereblon/GTPase KRas (Homo sapiens, UniProt P01116+Q96SW2, G12C); experiment: PROTAC activity at CRBN/KRAS G12C mutant in human NCI-H358 cells assessed as induction of KRAS G12C degradation; format: cell-based
NCI-H358 [2] = experiment: Antiproliferative activity against human NCI-H358 cells harboring KRAS G12C mutant assessed as inhibition of cell growth; format: functional, cell-based
[3] = test system: GTPase KRas (Homo sapiens), P01116 [G12S]; experiment: Covalent modification of GDP-bound recombinant human KRAS G12S mutant at 10 uM incubated for 1 hr by mass spectrometry analysis relative to control
[4] = test system: GTPase KRas (Homo sapiens), P01116 [G12S]; experiment: Covalent modification of GDP-bound recombinant human KRAS G12S mutant at 10 uM incubated for 12 hrs by mass spectrometry analysis relative to control
[5] = Inhibition of ERK phosphorylation in human NCI-H358 cells harboring KRAS G12C mutant by Western blot analysis; format: cell-based
NCI-H358 [6] = experiment: Antiproliferative activity against human NCI-H358 cells harboring KRAS G12C mutant assessed as inhibition of cell growth by resazurin dye based assay; format: functional
BaF3 [7] = experiment: Antiproliferative activity against mouse BaF3 cells harboring wild type KRAS assessed as inhibition of cell growth incubated for 72 hrs by CellTiter-Glo luminescent assay; format: functional, cell-based; settings: BaF3, 72 h
[8] = Antiproliferative activity against human KMS-20 cells harboring KRAS G12S mutant assessed as inhibition of cell growth incubated for 72 hrs by CellTiter-Glo luminescent assay; format: functional, cell-based; settings: KMS-20, 72 h
BaF3 [9] = experiment: Antiproliferative activity against mouse BaF3 cells harboring KRAS G12S mutant assessed as inhibition of cell growth incubated for 72 hrs by CellTiter-Glo luminescent assay; format: functional, cell-based; settings: BaF3, 72 h
GTPase KRas = GTPase KRas (Homo sapiens, UniProt P01116, G12S); experiment: Inhibition of GTP-bound KRAS G12S mutant in human A549 cells incubated for 2 hrs by immunoblot analysis; format: cell-based
[10] = test system: GTPase KRas (Homo sapiens), P01116 [G12S]; experiment: Covalent modification of GDP-bound recombinant human KRAS G12S mutant at 10 uM incubated for 10 mins by mass spectrometry analysis relative to control
NCI-H23 = experiment: Antiproliferative activity against human NCI-H23 cells harboring KRAS G12C mutant assessed as inhibition of cell growth; format: functional, cell-based

Chain of GTPase KRas (Homo sapiens), P01116 [G12S] (P01116 whole entry G12S): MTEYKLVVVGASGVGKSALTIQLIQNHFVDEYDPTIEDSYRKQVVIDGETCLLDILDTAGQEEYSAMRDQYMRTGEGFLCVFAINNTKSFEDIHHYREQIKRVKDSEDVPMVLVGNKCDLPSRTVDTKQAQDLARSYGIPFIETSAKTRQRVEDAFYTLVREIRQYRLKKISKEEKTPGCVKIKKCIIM
Chain of Protein cereblon/GTPase KRas (P01116 whole entry G12C, stated change not applied): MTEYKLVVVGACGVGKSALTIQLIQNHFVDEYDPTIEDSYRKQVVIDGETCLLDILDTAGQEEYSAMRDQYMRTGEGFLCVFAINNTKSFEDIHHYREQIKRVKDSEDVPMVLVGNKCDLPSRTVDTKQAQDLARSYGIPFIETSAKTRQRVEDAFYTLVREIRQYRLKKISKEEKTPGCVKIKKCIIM
Chain of Protein cereblon/GTPase KRas (Q96SW2 whole entry, stated change not applied): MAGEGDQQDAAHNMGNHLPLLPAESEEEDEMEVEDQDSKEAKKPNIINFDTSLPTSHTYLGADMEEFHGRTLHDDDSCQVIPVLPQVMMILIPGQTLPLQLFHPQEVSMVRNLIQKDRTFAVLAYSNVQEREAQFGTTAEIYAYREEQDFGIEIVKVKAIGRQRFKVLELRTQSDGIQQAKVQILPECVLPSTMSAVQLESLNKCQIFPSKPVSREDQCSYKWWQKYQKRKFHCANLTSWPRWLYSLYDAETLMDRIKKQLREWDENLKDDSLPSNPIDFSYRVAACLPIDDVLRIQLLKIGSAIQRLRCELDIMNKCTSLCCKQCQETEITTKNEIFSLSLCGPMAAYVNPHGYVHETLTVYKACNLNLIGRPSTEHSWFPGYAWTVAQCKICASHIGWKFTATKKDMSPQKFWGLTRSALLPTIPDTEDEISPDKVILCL
Chain of GTPase KRas (P01116 whole entry G12S): as the sequence (P01116 whole entry G12S) above

SMILES: COc1cc(Cl)c(-c2cc(Cl)ccc2Cl)cc1C(=O)N1CCN(C(=O)/C=C\C(=O)NCCCCCCNc2cccc3c2C(=O)N(C2CCC(=O)NC2=O)C3=O)CC1 (stereo not drawn)
DC50 [1]: 1.25 µM | IC50 (NCI-H358 [2]): 17.4 µM

Activity [3]: 64% | Activity [4]: 100%
SMILES: CN1CCC[C@H]1COc1nc2c(c(N3CCC4C(=O)OC4C3)n1)CCN(c1cccc3cccc(Cl)c13)C2 (stereo partly drawn)

IC50 [5]: 0.018 µM | IC50 (NCI-H358 [6]): 0.019 µM
SMILES: C=CC(=O)N1CC2(CC(n3nc(-c4ccc5c(cnn5C)c4)c(-c4c(Cl)c(C)cc5[nH]ncc45)c3C)C2)C1 [OPNURASIB]

IC50 (BaF3 [7]): 12.5 µM | IC50 (BaF3 [9]): 2.4 µM | IC50 (GTPase KRas): 3 µM | Activity [10]: 100%
SMILES: O=C1O[C@H]2CN(c3nc(OCC45CCCN4CCC5)nc4c(F)c(-c5cccc6cccc(Cl)c56)ncc34)CC[C@@H]12
IC50 [8]: 7.5 µM

IC50 (NCI-H23): 1.55 µM | IC50 (NCI-H358 [2]): 0.78 µM
SMILES: C=C(C(=O)N1CCN(c2ncnc3c(F)c(-c4cc(Cl)ccc4OC)c(Cl)cc23)[C@H](C)C1)C(F)(F)F

Source: ChEMBL document CHEMBL5346875, “Annual review of KRAS inhibitors in 2022” (Eur J Med Chem, 2023)
